Measured values from PubChem BioAssay AID1745844 (Carcinogenic Potency Database (CPDB), 2022).
The source made the active and inactive calls. How the calls were made is not given here.

Tested on: rodent lifetime carcinogenesis bioassay, tumor incidence TD50
Experiment: carcinogenic potency in animals, long-term in vivo studies, CPDB compilation (AID 1745844)

ClC(Cl)Cl
3530 mg/kg/day: TD50 (mouse, strain Crj:BDF1, males, inhaled, site: lung, lesion: alveolar/bronchiolar carcinoma, dosed 104 weeks, study length 104 weeks)
54.1 mg/kg/day: TD50 (mouse, strain B6C3F1, females, by gavage, site: any site (literature study), lesion: several types, types named in the paper, dosed 78 weeks, study length 92 weeks)
71.1 mg/kg/day: TD50 (mouse, strain B6C3F1, males, by gavage, site: any site (literature study), lesion: several types, types named in the paper, dosed 78 weeks, study length 92 weeks)
2070 mg/kg/day: TD50 (mouse, strain Crj:BDF1, females, inhaled, site: pituitary gland, lesion: adenoma, dosed 104 weeks, study length 104 weeks)
48 mg/kg/day: TD50 (mouse, strain B6C3F1, females, by gavage, site: liver, lesion: hepatocellular adenoma + hepatocellular carcinoma + neoplastic nodule, dosed 78 weeks, study length 92 weeks)
inactive: TD50 (dog, strain Beagle, females, in feed, site: any site (literature study), lesion: several types, types named in the paper, dosed 376 weeks, study length 397 weeks) 10 mg/kg/day | carcinogen call (dog, strain Beagle, females, in feed, site: liver, lesion: one or several types, types not named, dosed 376 weeks, study length 397 weeks) negative | TD50 (dog, strain Beagle, males, in feed, site: any site (literature study), lesion: several types, types named in the paper, dosed 376 weeks, study length 397 weeks) 13.3 mg/kg/day | carcinogen call (dog, strain Beagle, males, in feed, site: liver, lesion: one or several types, types not named, dosed 376 weeks, study length 397 weeks) negative | carcinogen call (mouse, strain B6C3F1, females, in drinking water, site: any site (literature study), lesion: several types, types named in the paper, dosed 104 weeks, study length 104 weeks) negative | carcinogen call (mouse, strain B6C3F1, females, in drinking water, site: liver, lesion: hepatocellular adenoma, dosed 104 weeks, study length 104 weeks) negative | TD50 (mouse, strain B6C3F1, females, in drinking water, site: liver, lesion: hepatocellular carcinoma, dosed 104 weeks, study length 104 weeks) 20200 mg/kg/day | carcinogen call (mouse, strain B6C3F1, females, in drinking water, site: liver, lesion: several types, types named in the paper, dosed 104 weeks, study length 104 weeks) negative | carcinogen call (mouse, strain C57BL, males, by gavage, site: any site (literature study), lesion: several types, types named in the paper, dosed 80 weeks, study length 104 weeks) negative | carcinogen call (mouse, strain C57BL, males, by gavage, site: liver, lesion: one or several types, types not named, dosed 80 weeks, study length 104 weeks) negative | TD50 (mouse, strain C57BL, males, by gavage, site: lung, lesion: several types, types named in the paper, dosed 80 weeks, study length 104 weeks) 728 mg/kg/day | carcinogen call (mouse, strain CBA, males, by gavage, site: any site (literature study), lesion: several types, types named in the paper, dosed 80 weeks, study length 104 weeks) negative | carcinogen call (mouse, strain CBA, males, by gavage, site: liver, lesion: several types, types named in the paper, dosed 80 weeks, study length 104 weeks) negative | carcinogen call (mouse, strain CBA, males, by gavage, site: lung, lesion: several types, types named in the paper, dosed 80 weeks, study length 104 weeks) negative | TD50 (mouse, strain CF-1, males, by gavage, site: any site (literature study), lesion: several types, types named in the paper, dosed 80 weeks, study length 93 weeks) 140 mg/kg/day | TD50 (mouse, strain CF-1, males, by gavage, site: liver, lesion: one or several types, types not named, dosed 80 weeks, study length 93 weeks) 1430 mg/kg/day | TD50 (mouse, strain CF-1, males, by gavage, site: lung, lesion: several types, types named in the paper, dosed 80 weeks, study length 93 weeks) 376 mg/kg/day | carcinogen call (mouse, strain CFLP, males, by gavage, site: liver, lesion: one or several types, types not named, dosed 80 weeks, study length 104 weeks) negative | TD50 (mouse, strain CFLP, males, by gavage, site: lung, lesion: one or several types, types not named, dosed 80 weeks, study length 104 weeks) 4350 mg/kg/day | carcinogen call (mouse, strain ICI, females, by gavage, site: any site (literature study), lesion: several types, types named in the paper, dosed 80 weeks, study length 96 weeks) negative | carcinogen call (mouse, strain ICI, females, by gavage, site: liver, lesion: one or several types, types not named, dosed 80 weeks, study length 96 weeks) negative | TD50 (mouse, strain ICI, females, by gavage, site: lung, lesion: one or several types, types not named, dosed 80 weeks, study length 96 weeks) 316 mg/kg/day
402 mg/kg/day: TD50 (mouse, strain Crj:BDF1, males, inhaled, site: liver, lesion: several types, types named in the paper, dosed 104 weeks, study length 104 weeks)
active: TD50 (mouse, strain B6C3F1, females, by gavage, site: liver, lesion: hepatocellular carcinoma, dosed 78 weeks, study length 92 weeks) 48 mg/kg/day | TD50 (mouse, strain B6C3F1, males, by gavage, site: liver, lesion: hepatocellular carcinoma, dosed 78 weeks, study length 92 weeks) 56.2 mg/kg/day | TD50 (mouse, strain CFLP, males, by gavage, site: kidney, lesion: several types, types named in the paper, dosed 80 weeks, study length 104 weeks) 153 mg/kg/day | TD50 (mouse, strain Crj:BDF1, females, inhaled, site: liver, lesion: hepatocellular carcinoma, dosed 104 weeks, study length 104 weeks) 2670 mg/kg/day | TD50 (mouse, strain Crj:BDF1, females, inhaled, site: liver, lesion: several types, types named in the paper, dosed 104 weeks, study length 104 weeks) 909 mg/kg/day | TD50 (mouse, strain Crj:BDF1, males, inhaled, site: kidney, lesion: renal-cell adenoma, dosed 104 weeks, study length 104 weeks) 1250 mg/kg/day | TD50 (mouse, strain Crj:BDF1, males, inhaled, site: kidney, lesion: renal-cell carcinoma, dosed 104 weeks, study length 104 weeks) 287 mg/kg/day | TD50 (mouse, strain Crj:BDF1, males, inhaled, site: kidney, lesion: several types, types named in the paper, dosed 104 weeks, study length 104 weeks) 226 mg/kg/day
56.2 mg/kg/day: TD50 (mouse, strain B6C3F1, males, by gavage, site: liver, lesion: hepatocellular adenoma + hepatocellular carcinoma + neoplastic nodule, dosed 78 weeks, study length 92 weeks)
